Experimental data as given in US20250327046A1, “ROLE OF POLYPHOSPHATES IN NEUROLOGICAL DISORDERS” (UNIVERSITY OF MASSACHUSETTS, priority 2021, published 2025).

System: mutSOD1 mice
Test: Survival of mutSOD1 mice (mouse model of ALS)
Format: in vivo
Conditions: FIG. 10B, polyP neutralizing cationic polyamine
Excerpt: Hemizygous transgenic mice carrying mutant human SOD1^G93A (high copy number; B6SJL; Cat. #002726), wild-type human SOD1^WT (B6SJL; Cat. #002297) and TARDBP^A315T (C57BL/6J; Cat. #010700) transgenes were obtained from Jackson Laboratories (Bar Harbor, Maine, USA). Hemizygous transgenic mice (background B6SJLF/J) carrying C9ORF72 hexanucleotide repeats (˜500) in intron were generated by Robert Brown (Peters et al., 2015). All mice were maintained and bred at the animal facility of Universidad Andres Bello. The presence of the human SOD1transgene, the human TARDBP transgene and the human C9ORF72 transgene were validated by polymerase chain reaction as previously described. Transgenic males were crossed with WT females (B6SJL or C57BL/6J) from the corresponding background; these non-transgenic littermates (NTg) were used as internal controls for all experiments. The SOD1^G93A (mutSOD1) mice, but not the hSOD1WT (wtSOD1) mice, develop signs of neuromuscular deficits (tremor of the legs and loss of extension reflex of the hind paws) starting at 3 months of age and have an average lifespan of 133-147 days. […]
In this Example, polyP neutralizing molecules including a dendrimer (e.g., G3-PAMAM-NH2) and a cationic polyamine (e.g., spermidine) were evaluated as potential therapies for neurological disorders using a mouse model of ALS. […]

SMILES: NCCCCNCCCN [spermidine]
- survival of mutSOD1 mice (in words): prolonged survival
